Active and inactive are the calls of the source. The calls are words filed in the database; no cut-off is given here.
What was measured:
HL-60 [1] = assay: Induction of apoptosis in human HL-60 cells assessed as viable cells at 10 uM incubated for 48 hrs by annexin V-FITC/PI staining based flow cytometry (reference value: 96.5 %); format: functional; details: read-out: Activity
[2] = molecular target: CDK6/cyclin D1 (Homo sapiens) (UniProt P24385+Q00534); assay: Inhibition of CDK6/Cyclin D1 (unknown origin) at 1 uM preincubated for 10 mins followed by substrate addition measured for 60 to 120 mins by HTRF assay relative to control; format: protein-complex assay; details: time 70-130 min
[3] = molecular target: Proto-oncogene tyrosine-protein kinase ROS (Homo sapiens) (UniProt P08922); assay: Inhibition of ROS (unknown origin) at 1 uM preincubated for 10 mins followed by substrate addition measured for 60 to 120 mins by HTRF assay relative to control; details: time 70-130 min
[4] = molecular target: High affinity nerve growth factor receptor (Homo sapiens) (UniProt P04629); assay: Inhibition of TRKA (unknown origin) at 1 uM preincubated for 10 mins followed by substrate addition measured for 60 to 120 mins by HTRF assay relative to control; details: time 70-130 min
MOLM-13 = assay: Antiproliferative activity against human MOLM-13 cells incubated for 48 hrs by CCK8 assay; format: functional
C1498 = assay: Downregulation of STAT1 S727 expression in mouse C1498 cells allografted in AML Balb/C mouse model administered orally daily for 15 days measured after 3 weeks by Western blot analysis; format: functional, cell-based; details: dose 40-80 mg/kg, route po, time 15.0 day
HT-29 = assay: Antiproliferative activity against human HT-29 cells incubated for 48 hrs by CCK8 assay; format: functional
[5] = molecular target: Cyclin-dependent kinase 8 (Homo sapiens, UniProt P49336); assay: Binding affinity to flag-tagged CDK8 (unknown origin) transfected in HEK-293T cells upto 4 uM incubated for 12 hrs by biotin pull down based Western blot analysis; format: cell-based
[6] = Acute toxicity in C57BL/6 mouse assessed as histopathological change in heart at 2000 mg/kg, IG measured for 14 days by H&E staining based analysis; format: organism-based; details: in vivo, po, 336 h, time 14 day
HCT-116 = assay: Downregulation of STAT5 S726 phosphorylation in human HCT-116 cells incubated for 12 hrs by Western blot analysis; format: functional, cell-based; details: dose 1-10 µM
HL-60 [7] = assay: Induction of apoptosis in human HL-60 cells assessed as necrotic cells at 5 uM incubated for 48 hrs by annexin V-FITC/PI staining based flow cytometry (reference value: 0.26 %); format: functional
[8] = Half life in Sprague-Dawley rat at 2 mg/kg, iv; format: ADME, organism-based; details: in vivo
[9] = molecular target: Vascular endothelial growth factor receptor 2 (Homo sapiens) (UniProt P35968); assay: Inhibition of KDR (unknown origin) at 1 uM preincubated for 10 mins followed by substrate addition measured for 60 to 120 mins by HTRF assay relative to control; details: time 70-130 min
[10] = molecular target: CDK2/Cyclin A2 (Homo sapiens) (UniProt P24941+P20248); assay: Inhibition of CDK2/Cyclin A2 (unknown origin) at 1 uM preincubated for 10 mins followed by substrate addition measured for 60 to 120 mins by HTRF assay relative to control; format: protein-complex assay; details: time 70-130 min
[11] = molecular target: Tyrosine-protein kinase Yes (Homo sapiens) (UniProt P07947); assay: Inhibition of YES (unknown origin) at 1 uM preincubated for 10 mins followed by substrate addition measured for 60 to 120 mins by HTRF assay relative to control; details: time 70-130 min
[12] = molecular target: CDK4/Cyclin D3 (Homo sapiens) (UniProt P11802+P30281); assay: Inhibition of CDK4/Cyclin D3 (unknown origin) at 1 uM preincubated for 10 mins followed by substrate addition measured for 60 to 120 mins by HTRF assay relative to control; format: protein-complex assay; details: time 70-130 min
[13] = molecular target: Cyclin-dependent kinase 13/Cyclin-K (Homo sapiens) (UniProt Q14004+O75909); assay: Inhibition of CDK13/Cyclin K (unknown origin) at 1 uM preincubated for 10 mins followed by substrate addition measured for 60 to 120 mins by HTRF assay relative to control; format: protein-complex assay; details: time 70-130 min
[14] = molecular target: Fibroblast growth factor receptor 1 (Homo sapiens) (UniProt P11362); assay: Inhibition of FGFR1 (unknown origin) at 1 uM preincubated for 10 mins followed by substrate addition measured for 60 to 120 mins by HTRF assay relative to control; details: time 70-130 min
[15] = molecular target: Fibroblast growth factor receptor 4 (Homo sapiens) (UniProt P22455); assay: Inhibition of FGFR4 (unknown origin) at 1 uM preincubated for 10 mins followed by substrate addition measured for 60 to 120 mins by HTRF assay relative to control; details: time 70-130 min
[16] = Toxicity in AML […] mouse model allografted with mouse C1498 cells assessed as body weight loss at 40 to 80 mg/kg, po administered daily for 15 days measured on every 2 days; format: organism-based; details: in vivo, 360 h, dose 40-80 mg/kg, time 15 day
[17] = molecular target: Ephrin type-A receptor 4 (Homo sapiens) (UniProt P54764); assay: Inhibition of EPHA4 (unknown origin) at 1 uM preincubated for 10 mins followed by substrate addition measured for 60 to 120 mins by HTRF assay relative to control; details: time 70-130 min
[18] = Bioavailability in Sprague-Dawley rat at 10 mg/kg, po; format: ADME, organism-based; details: in vivo
[19] = Acute toxicity in C57BL/6 mouse assessed as histopathological change in lung at 2000 mg/kg, IG measured for 14 days by H&E staining based analysis; format: organism-based; details: in vivo, po, 336 h, time 14 day
[20] = molecular target: Non-receptor tyrosine-protein kinase TYK2 (Homo sapiens) (UniProt P29597); assay: Inhibition of TYK2 (unknown origin) at 1 uM preincubated for 10 mins followed by substrate addition measured for 60 to 120 mins by HTRF assay relative to control; details: time 70-130 min
[21] = molecular target: Insulin receptor (Homo sapiens) (UniProt P06213); assay: Inhibition of INSR (unknown origin) at 1 uM preincubated for 10 mins followed by substrate addition measured for 60 to 120 mins by HTRF assay relative to control; details: time 70-130 min
[22] = molecular target: Receptor tyrosine-protein kinase erbB-2 (Homo sapiens) (UniProt P04626); assay: Inhibition of HER2 (unknown origin) at 1 uM preincubated for 10 mins followed by substrate addition measured for 60 to 120 mins by HTRF assay relative to control; details: time 70-130 min
[23] = molecular target: Vascular endothelial growth factor receptor 3 (Homo sapiens) (UniProt P35916); assay: Inhibition of FLT4 (unknown origin) at 1 uM preincubated for 10 mins followed by substrate addition measured for 60 to 120 mins by HTRF assay relative to control; details: time 70-130 min
[24] = molecular target: Insulin-like growth factor 1 receptor (Homo sapiens) (UniProt P08069); assay: Inhibition of IGF1R (unknown origin) at 1 uM preincubated for 10 mins followed by substrate addition measured for 60 to 120 mins by HTRF assay relative to control; details: time 70-130 min
[25] = molecular target: Tyrosine-protein kinase SYK (Homo sapiens) (UniProt P43405); assay: Inhibition of SYK (unknown origin) at 1 uM preincubated for 10 mins followed by substrate addition measured for 60 to 120 mins by HTRF assay relative to control; details: time 70-130 min
[26] = molecular target: Tyrosine-protein kinase Fgr (Homo sapiens) (UniProt P09769); assay: Inhibition of FGR (unknown origin) at 1 uM preincubated for 10 mins followed by substrate addition measured for 60 to 120 mins by HTRF assay relative to control; details: time 70-130 min

Vascular endothelial growth factor receptor 2 (Homo sapiens), sequence (P35968 whole entry): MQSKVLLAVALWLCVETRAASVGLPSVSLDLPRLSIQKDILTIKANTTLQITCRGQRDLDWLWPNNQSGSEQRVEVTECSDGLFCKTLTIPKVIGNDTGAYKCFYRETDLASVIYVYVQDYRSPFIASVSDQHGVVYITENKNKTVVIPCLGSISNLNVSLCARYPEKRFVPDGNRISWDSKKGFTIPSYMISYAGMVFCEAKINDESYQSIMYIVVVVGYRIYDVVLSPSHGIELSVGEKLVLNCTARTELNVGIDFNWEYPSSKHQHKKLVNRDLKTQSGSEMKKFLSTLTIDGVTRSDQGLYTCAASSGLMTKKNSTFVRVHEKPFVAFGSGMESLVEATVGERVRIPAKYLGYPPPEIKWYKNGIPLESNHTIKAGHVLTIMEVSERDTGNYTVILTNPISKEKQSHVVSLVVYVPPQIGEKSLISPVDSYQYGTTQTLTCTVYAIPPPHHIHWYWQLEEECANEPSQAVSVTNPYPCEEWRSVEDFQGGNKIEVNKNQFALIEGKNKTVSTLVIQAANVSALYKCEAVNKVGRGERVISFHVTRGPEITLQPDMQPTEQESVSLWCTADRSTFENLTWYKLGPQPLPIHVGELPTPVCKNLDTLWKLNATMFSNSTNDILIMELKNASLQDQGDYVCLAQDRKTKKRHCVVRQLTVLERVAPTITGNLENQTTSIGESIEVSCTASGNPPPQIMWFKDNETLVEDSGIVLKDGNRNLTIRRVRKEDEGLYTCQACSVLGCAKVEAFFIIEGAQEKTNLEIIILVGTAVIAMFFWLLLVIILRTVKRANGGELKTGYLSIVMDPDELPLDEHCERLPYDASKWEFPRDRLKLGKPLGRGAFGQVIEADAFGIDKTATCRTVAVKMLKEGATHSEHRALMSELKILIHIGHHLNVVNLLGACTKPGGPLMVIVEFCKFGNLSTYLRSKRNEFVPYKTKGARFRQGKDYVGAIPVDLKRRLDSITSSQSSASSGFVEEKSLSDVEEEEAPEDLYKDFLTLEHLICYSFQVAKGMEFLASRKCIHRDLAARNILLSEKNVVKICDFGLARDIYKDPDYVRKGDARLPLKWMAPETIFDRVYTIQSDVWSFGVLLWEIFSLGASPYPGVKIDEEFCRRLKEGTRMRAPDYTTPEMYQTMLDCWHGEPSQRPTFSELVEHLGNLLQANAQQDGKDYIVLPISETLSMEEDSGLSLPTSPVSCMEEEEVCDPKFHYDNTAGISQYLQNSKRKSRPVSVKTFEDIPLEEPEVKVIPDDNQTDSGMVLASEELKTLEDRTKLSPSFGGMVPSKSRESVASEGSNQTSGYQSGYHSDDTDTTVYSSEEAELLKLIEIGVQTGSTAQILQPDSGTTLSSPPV
Fibroblast growth factor receptor 1 (Homo sapiens), sequence (P11362 22-822 limits assumed): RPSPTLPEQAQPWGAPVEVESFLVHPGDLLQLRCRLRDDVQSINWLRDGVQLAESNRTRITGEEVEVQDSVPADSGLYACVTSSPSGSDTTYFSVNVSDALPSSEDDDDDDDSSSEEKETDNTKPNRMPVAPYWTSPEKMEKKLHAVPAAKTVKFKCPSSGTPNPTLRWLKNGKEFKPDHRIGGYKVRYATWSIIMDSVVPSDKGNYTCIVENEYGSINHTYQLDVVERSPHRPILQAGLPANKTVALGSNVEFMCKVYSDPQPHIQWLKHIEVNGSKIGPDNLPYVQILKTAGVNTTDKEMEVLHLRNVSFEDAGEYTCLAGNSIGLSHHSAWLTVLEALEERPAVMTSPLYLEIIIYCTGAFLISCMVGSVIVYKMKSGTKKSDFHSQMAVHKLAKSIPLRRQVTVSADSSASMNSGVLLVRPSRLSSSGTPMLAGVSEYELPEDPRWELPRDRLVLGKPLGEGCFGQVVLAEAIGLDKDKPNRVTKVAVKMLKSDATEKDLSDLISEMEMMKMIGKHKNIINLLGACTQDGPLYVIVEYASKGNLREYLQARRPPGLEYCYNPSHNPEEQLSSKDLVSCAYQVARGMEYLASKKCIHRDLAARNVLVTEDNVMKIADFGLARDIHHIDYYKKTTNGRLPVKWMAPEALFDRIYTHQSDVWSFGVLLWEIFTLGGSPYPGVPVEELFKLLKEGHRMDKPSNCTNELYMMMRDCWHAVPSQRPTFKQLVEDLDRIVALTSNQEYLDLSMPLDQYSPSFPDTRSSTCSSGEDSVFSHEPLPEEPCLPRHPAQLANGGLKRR
Cyclin-dependent kinase 13/Cyclin-K (Homo sapiens), sequence (O75909 whole entry, looked up): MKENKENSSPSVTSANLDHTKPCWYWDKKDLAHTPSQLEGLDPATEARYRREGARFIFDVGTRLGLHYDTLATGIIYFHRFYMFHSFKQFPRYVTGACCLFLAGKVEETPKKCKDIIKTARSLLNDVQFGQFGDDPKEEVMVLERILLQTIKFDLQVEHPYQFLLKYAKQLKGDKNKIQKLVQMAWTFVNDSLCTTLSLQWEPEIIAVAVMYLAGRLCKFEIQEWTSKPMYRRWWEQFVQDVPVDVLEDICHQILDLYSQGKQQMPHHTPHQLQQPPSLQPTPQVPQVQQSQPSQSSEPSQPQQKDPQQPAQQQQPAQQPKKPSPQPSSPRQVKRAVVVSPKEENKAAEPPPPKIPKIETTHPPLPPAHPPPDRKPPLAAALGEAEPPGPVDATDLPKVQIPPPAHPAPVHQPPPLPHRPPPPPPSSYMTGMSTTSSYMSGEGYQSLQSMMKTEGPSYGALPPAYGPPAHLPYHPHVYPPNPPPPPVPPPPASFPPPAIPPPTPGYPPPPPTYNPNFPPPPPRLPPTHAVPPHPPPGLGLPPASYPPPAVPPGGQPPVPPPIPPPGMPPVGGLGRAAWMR
Cyclin-dependent kinase 13/Cyclin-K (Homo sapiens), sequence (Q14004 whole entry, looked up): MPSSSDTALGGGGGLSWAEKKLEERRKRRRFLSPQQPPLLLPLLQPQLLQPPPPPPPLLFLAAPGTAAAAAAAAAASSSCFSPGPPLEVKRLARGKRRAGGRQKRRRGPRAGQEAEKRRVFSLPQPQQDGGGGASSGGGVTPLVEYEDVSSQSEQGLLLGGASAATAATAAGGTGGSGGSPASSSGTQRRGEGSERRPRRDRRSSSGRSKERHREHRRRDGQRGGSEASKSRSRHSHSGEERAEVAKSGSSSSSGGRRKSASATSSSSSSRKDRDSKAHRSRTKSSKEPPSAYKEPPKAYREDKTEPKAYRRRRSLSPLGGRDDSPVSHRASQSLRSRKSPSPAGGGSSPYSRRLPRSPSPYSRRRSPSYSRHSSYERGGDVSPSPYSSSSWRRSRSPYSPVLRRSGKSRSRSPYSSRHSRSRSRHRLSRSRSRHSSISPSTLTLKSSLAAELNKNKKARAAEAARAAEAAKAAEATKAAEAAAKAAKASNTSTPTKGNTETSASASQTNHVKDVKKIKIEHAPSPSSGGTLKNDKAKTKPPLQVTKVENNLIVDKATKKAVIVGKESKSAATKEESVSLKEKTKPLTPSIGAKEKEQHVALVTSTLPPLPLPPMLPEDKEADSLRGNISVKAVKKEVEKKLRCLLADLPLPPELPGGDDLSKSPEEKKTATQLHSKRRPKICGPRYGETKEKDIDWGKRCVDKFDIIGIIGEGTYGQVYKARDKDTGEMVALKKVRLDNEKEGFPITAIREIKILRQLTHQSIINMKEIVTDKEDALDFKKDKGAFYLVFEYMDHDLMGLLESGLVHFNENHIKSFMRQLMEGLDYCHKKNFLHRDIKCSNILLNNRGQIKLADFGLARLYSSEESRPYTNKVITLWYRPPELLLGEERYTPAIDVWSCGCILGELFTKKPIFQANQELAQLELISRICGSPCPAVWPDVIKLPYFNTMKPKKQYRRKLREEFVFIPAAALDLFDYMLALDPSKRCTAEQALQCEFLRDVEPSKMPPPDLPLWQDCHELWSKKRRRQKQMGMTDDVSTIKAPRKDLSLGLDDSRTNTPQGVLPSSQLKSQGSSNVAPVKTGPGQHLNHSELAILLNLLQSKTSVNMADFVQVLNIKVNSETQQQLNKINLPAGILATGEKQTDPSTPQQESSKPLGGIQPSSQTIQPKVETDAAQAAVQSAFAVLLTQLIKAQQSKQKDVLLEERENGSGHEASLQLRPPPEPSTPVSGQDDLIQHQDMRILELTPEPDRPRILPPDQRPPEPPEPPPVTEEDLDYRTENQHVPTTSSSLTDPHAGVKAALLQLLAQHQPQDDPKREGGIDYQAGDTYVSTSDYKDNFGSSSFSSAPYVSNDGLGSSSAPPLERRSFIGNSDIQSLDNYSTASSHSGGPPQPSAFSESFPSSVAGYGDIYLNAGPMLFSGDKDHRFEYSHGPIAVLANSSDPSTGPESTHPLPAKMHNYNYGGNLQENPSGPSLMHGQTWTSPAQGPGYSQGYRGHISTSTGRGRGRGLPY
High affinity nerve growth factor receptor (Homo sapiens), sequence (P04629 33-796 limits assumed): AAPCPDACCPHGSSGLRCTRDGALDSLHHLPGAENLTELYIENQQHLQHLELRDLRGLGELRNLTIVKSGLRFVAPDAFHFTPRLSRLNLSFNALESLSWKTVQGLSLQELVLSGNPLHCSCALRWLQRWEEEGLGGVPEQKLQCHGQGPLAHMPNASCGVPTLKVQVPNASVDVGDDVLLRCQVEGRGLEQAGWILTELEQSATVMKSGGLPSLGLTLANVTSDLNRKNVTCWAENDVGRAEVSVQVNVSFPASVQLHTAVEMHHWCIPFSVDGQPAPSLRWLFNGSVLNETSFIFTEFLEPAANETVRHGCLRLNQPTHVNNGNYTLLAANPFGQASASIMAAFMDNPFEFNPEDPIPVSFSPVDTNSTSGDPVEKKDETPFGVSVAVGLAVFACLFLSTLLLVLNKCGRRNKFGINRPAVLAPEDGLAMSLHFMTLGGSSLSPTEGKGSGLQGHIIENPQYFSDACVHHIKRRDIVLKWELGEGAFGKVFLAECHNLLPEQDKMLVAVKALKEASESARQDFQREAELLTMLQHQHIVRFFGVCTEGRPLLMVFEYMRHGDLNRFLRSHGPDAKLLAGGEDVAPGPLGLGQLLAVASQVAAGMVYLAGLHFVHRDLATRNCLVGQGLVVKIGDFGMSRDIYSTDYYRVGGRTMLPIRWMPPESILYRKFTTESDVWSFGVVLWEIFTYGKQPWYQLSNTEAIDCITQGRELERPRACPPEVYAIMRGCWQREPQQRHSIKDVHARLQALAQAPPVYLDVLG

NC(=O)c1cccc(-c2cnc3[nH]ccc3c2)c1
viability at 10 µM (HL-60 [1]): 37.8% | inhibition [2]: 0.37% | inhibition [3]: 8.63% | inhibition [4]: 13.3% | GI50 (MOLM-13): 1570 nM | Activity (C1498): Dose-Dependent Effect | GI50 (HT-29): > 50000 nM | Activity [5]: Active | Activity [6]: Non-Toxic | Activity (HCT-116): Dose-Dependent Effect | Activity (HL-60 [7]): 8.48% | half-life [8]: 48.6 min | inhibition [9]: 31.1% | inhibition [10]: 3.99% | inhibition [11]: 0% | inhibition [12]: 7.02% | inhibition [13]: 9.63% | inhibition [14]: 28.1% | inhibition [15]: 14.1% | Activity [16]: Non-Toxic | inhibition [17]: 1.96% | bioavailability [18]: 28% | Activity [19]: Non-Toxic | inhibition [20]: 0% | inhibition [21]: 7.74% | inhibition [22]: 3.32% | inhibition [23]: 10.7% | inhibition [24]: 7.77% | inhibition [25]: 4.7% | inhibition [26]: 14.9%

Source: ChEMBL document CHEMBL5346907, “Discovery of a novel oral type Ⅰ CDK8 inhibitor against acute myeloid leukemia” (Eur J Med Chem, 2023)
